Assays:
[1] = Main phase transition temperature (Tm) and reduced temperature (TR) of microbubble lipids; type: physicochemical; conditions: reduced temperature T/Tm in Kelvin
Description: As used herein, the “phase transition temperature” (Tm) refers to the temperature at which lipid assemblies transition from a solid (crystalline) phase to a fluid (liquid crystalline) phase. For example, 1,2-Dipentadecanolyl-sn-Glycero-3-Phosphoeholine (C15) has a Tm of 33° C. Thus this lipid is in the solid phase at room temperature and transitions to the fluid phase when it is injected into the body.
Shell cohesion, as a function of acyl chain length, may be represented by the reduced temperature (TR), which is equal to the ratio of the ambient temperature (or “working temperature”) (T) to the main phase transition temperature (Tm) of the lipid (in Kelvin). For TR>1, the shell is in an expanded (fluid) state at the working temperature. For TR<1, the shell is in a condensed (solid) state at the working temperature. See Table 2 for a list of lipids with their corresponding main phase transition temperatures (Tm) and reduced temperatures (TR).

[2] = main phase transition temperature, solid to fluid phase; cited from earlier work
[3] = test system: desaturated, venous whole blood; conditions: 0.2 mL added to 2 mL blood, one inversion
Description: In one test tube, 0.2 mL of the microbubbles were added to 2 mL of desaturated, venous whole blood.
The test tubes were inverted once, and co-oximetry and blood gas values measurements were taken using a Radiometer ABL800 X blood gas machine.

Row | Structure (SMILES) | TR at 25° C. [1] | TR at 37° C. [1] | Tm (° C.) [2] [°C] | PCO2 [3] [mmHg] | PO2 [3] [mmHG] | oxygenated hemoglobin (oxyHb) [3] [%] | pH [3]
1 | CCCCCCCCCCCC(=O)OC[C@H](COP(=O)([O-])OCC[N+](C)(C)C)OC(=O)CCCCCCCCCCC [C12, 1,2-Dilauroyl-sn-Glycero-3-Phosphocholine] | 1.10 | 1.14 | −1 | – | – | – | –
2 | O=O [unencapsulated oxygen, oxygen] | – | – | – | 59 | 33 | 59 | 7.33

The next lines start with results.

Row | TR at 25° C. [1] | TR at 37° C. [1] | Structure (SMILES) | Tm (° C.) [2] [°C] | PCO2 [3] [mmHg] | PO2 [3] [mmHG] | oxygenated hemoglobin (oxyHb) [3] [%] | pH [3]
3 | 1.01 | 1.05 | CCCCCCCCCCCCCC(=O)OC[C@H](COP(=O)([O-])OCC[N+](C)(C)C)OC(=O)CCCCCCCCCCCCC [C14, 1,2-Dimyristoyl-sn-Glycero-3-Phosphocholine] | 23 | – | – | – | –
4 | 0.97 | 1.01 | CCCCCCCCCCCCCCC(=O)OC[C@H](COP(=O)([O-])OCC[N+](C)(C)C)OC(=O)CCCCCCCCCCCCCC [C15, 1,2-Dipentadecanoyl-sn-Glycero-3-Phosphocholine] | 33 | – | – | – | –
5 | 0.95 | 0.99 | CCCCCCCCCCCCCCCC(=O)OC[C@H](COP(=O)([O-])OCC[N+](C)(C)C)OC(=O)CCCCCCCCCCCCCCC [C16, 1,2-Dipalmitoyl-sn-Glycero-3-Phosphocholine] | 41 | – | – | – | –
6 | 0.91 | 0.95 | CCCCCCCCCCCCCCCCCC(=O)OC[C@H](COP(=O)(O)OCCN)OC(=O)CCCCCCCCCCCCCCCCC [C18, 1,2-Distearoyl-sn-Glycero-3-Phosphoethanolamine] | 55 | – | – | – | –

Reference: US8481077B2, “Microbubbles and methods for oxygen delivery” (The Trustees of Columbia University in the City of New York, priority 2007, dated 2013)
